The record followed here is patent publication US11814367B2, “Inhibitors of glycogen synthase 1 (GYS1) and methods of use thereof” (Maze Therapeutics, Inc., priority 2021, dated 2023).

For assay [1], the target named is hGYS2 enzyme (recombinant hGYS2/GN1 protein) (Homo sapiens (Human), UniProt P54840). The experiment in a line: GYS2 coupled enzyme assay (PK/LDH). It is filed as biochemical. The conditions noted are these: geometric mean of at least 2 assay runs on separate days, read-out: Avg_IC50. An excerpt:
The GYS2 coupled enzyme assay is a kinetic biochemical assay that indirectly quantifies the rate of glycogen synthesis by coupling the conversion of GYS2 substrate UDP-glucose into UDP with downstream enzymatic reactions. UDP is released from UDP-glucose as glucose monomers are linked into the growing glycogen strand by GYS2. The coupled assay then proceeds with pyruvate kinase utilizing UDP and phospho(enol)pyruvate (PEP) to form pyruvate. Lactate dehydrogenase then converts pyruvate and NADH into lactate and NAD+. Oxidation of NADH to NAD+ can be measured continuously with a plate reader by quantifying the decrease in NADH absorbance at 340 nm over time.
Compounds that inhibit the hGYS2 enzyme and, subsequently, the downstream conversion of NADH to NAD+, were tested using assay ready plates (black, clear bottom 384 well plates) in a final DMSO reaction volume of 2.5% DMSO. The Assay Buffer contained 50 mM Tris pH 7.5, 2 mM MgCl2, and 100 mM KCl. Fresh stocks of BSA at a final concentration of 0.02% and TCEP 1 mM were added before splitting buffer into hGYS2 buffer and substrate buffer. To the hGYS2 buffer, rabbit liver glycogen was added at a final concentration of 0.2% glycogen. Glucose-6-Phosphate was added at 2 mM, recombinant hGYS2/GN1 protein was added at 200 nM to the substrate buffer, phosphoenolpyruvate (PEP) was added at 2 mM, UDP-Glucose was added at 2 mM, NADH was added at 0.6 mM, and Pyruvate Kinase/Lactate Dehydrogenase was added at 20 units/mL. The reaction was initiated by mixing hGYS2 buffer and substrate buffer at a 1:1 ratio. Both buffers were plated using a liquid dispensing device with hGYS2 buffer plated first followed by the substrate buffer. Plates were spun briefly to eliminate air bubbles and are immediately read in continuous mode at an absorbance of 340 nm, for 10 time points in one-minute increments, for a total of 10 minutes. The slope from these 10 time points was normalized to the positive and negative control wells. The duplicate % inhibition values are then averaged and fit to a Hill equation for dose response according to the Levenberg-Marquardt algorithm with the Hill equation maximum set to 100 and the minimum set to 0.
The results are shown in Table 4 below, which reports the IC50 of each compound. Unless otherwise specified, IC50 values are reported as the geometric mean of at least 2 assay runs on separate days. As shown in the table below, the compounds of the present invention are not potent inhibitors of human GYS2. Unless otherwise specified, IC50 values are reported as the geometric mean of at least two assay runs on separate days. Each run represents the average of a technical replicate, where each compound was assayed twice in the same plate. A superscript “#” symbol in Table 4 indicates results from a single assay run.

The target in assay [2] is hGYS1 enzyme (recombinant hGYS1/GN1 protein) (Homo sapiens (Human), UniProt P13807). The experiment in a line: GYS1 coupled enzyme assay (PK/LDH). In kind it is biochemical. Particulars: hGYS1/GN1 50 nM, UDP-Glucose 0.8 mM, G6P 1 mM; geometric mean of at least 2 runs.
Chain of hGYS1 enzyme (recombinant hGYS1/GN1 protein) (P13807 whole entry): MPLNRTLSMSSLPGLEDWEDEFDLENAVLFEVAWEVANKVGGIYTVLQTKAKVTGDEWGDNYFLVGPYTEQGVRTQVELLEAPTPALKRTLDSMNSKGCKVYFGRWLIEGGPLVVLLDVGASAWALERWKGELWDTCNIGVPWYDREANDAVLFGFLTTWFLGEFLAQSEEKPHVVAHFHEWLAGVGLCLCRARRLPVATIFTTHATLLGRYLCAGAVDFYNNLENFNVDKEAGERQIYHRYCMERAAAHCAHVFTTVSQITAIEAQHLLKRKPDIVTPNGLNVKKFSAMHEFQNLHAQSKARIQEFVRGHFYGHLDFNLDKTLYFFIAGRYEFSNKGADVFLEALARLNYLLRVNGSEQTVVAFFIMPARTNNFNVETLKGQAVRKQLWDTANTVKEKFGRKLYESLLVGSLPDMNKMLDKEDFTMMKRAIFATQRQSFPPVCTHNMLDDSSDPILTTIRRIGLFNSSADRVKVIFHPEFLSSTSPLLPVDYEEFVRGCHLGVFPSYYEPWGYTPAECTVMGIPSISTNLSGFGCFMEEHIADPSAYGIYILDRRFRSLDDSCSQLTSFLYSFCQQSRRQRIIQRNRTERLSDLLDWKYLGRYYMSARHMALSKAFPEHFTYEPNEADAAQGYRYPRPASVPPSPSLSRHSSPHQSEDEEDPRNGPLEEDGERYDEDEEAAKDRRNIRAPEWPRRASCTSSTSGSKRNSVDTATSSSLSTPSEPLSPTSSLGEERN
Chain of hGYS1 enzyme (recombinant hGYS1/GN1 protein) (P46976 whole entry partner): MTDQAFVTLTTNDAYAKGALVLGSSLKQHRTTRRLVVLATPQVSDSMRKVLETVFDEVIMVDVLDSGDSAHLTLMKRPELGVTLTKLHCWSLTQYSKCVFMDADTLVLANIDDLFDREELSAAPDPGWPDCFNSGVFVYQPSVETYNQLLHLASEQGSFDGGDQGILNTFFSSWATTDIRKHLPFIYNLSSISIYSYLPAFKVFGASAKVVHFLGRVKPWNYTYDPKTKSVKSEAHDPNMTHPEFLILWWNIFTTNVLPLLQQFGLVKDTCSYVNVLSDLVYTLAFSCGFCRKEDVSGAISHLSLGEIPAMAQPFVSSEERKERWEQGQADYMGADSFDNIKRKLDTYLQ

Chain of hGYS2 enzyme (recombinant hGYS2/GN1 protein) (P54840 whole entry): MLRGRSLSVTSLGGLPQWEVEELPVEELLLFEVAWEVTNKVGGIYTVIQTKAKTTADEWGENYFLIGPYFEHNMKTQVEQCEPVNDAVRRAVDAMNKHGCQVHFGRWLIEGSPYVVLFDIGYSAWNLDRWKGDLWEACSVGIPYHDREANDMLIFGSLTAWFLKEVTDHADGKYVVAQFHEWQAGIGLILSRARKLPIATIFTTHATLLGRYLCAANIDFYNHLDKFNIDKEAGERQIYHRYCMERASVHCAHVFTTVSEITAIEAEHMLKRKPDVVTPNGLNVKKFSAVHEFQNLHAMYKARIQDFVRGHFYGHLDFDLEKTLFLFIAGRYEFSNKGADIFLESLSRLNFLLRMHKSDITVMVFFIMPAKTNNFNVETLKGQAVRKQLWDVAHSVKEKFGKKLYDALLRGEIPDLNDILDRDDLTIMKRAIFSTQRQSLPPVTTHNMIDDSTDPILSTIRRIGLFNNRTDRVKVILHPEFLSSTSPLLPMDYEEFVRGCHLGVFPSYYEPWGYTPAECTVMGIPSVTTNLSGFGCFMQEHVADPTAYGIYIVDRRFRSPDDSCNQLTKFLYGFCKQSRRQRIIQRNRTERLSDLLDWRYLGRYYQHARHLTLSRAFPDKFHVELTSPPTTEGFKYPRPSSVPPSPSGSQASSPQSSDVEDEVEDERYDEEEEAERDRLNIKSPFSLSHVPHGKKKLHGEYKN
Chain of hGYS2 enzyme (recombinant hGYS2/GN1 protein) (P46976 whole entry partner): as the sequence (P46976 whole entry partner) above

For the compound `Cc1ccc(CCC(=O)N2C[C@H](F)C[C@H]2C(=O)N[C@@H](c2ccccc2)c2ccc(C(C)C)cc2)nc1` [Compound 101, (2S,4R)-4-fluoro-1-[3-(5-methylpyridin-2-yl)propanoyl]-N-[(S)-phenyl[4-(propan-2-yl)phenyl]methyl]pyrrolidine-2-carboxamide], the IC50 in assay [1] was > 100000 nM; in assay [2], 54 nM.
The like results for `CC(C)c1ccc([C@@H](NC(=O)[C@@H]2C[C@@H](F)CN2C(=O)Cn2cccn2)c2ccccc2)cc1` (stereo in doubt) [Compound 221, (2S,4RS)-4-fluoro-N-[(S)-phenyl[4-(propan-2-yl)phenyl]methyl]-1-[2-(1H-pyrazol-1-yl)acetyl]pyrrolidine-2-carboxamide] were, in that order, > 100000 nM and 43 nM.
For the compound `CC(C)c1ccc([C@@H](NC(=O)[C@@H]2C[C@@H](F)CN2C(=O)Cc2ccncn2)c2ccccc2)cc1F` [Compound 346, (2S,4R)-4-fluoro-N-[(S)-[3-fluoro-4-(propan-2-yl)phenyl](phenyl)methyl]-1-[2-(pyrimidin-4-yl)acetyl]pyrrolidine-2-carboxamide], the figures for the IC50 in assay [1] and in assay [2] were > 100000 nM and 24 nM, respectively.
In the same order, the values of `CC(=O)N1CCC(C(=O)N2C[C@H](F)C[C@H]2C(=O)N[C@@H](c2ccccc2)c2ccc(C(C)C)cc2)CC1` [Compound 144, (2S,4R)-1-(1-acetylpiperidine-4-carbonyl)-4-fluoro-N-[(S)-phenyl[4-(propan-2-yl)phenyl]methyl]pyrrolidine-2-carboxamide] are > 100000 nM and 168 nM.
As for `CC(C)c1ccc([C@@H](NC(=O)[C@@H]2C[C@@H](F)CN2C(=O)CCc2ccccn2)c2ccccc2)cc1` [Compound 65, (2S,4R)-4-fluoro-N-[(S)-phenyl[4-(propan-2-yl)phenyl]methyl]-1-[3-(pyridin-2-yl)propanoyl]pyrrolidine-2-carboxamide], the IC50 was > 100000 nM in assay [1] and 76 nM in assay [2].
The like results for `Cc1ccccc1OCC(=O)N1C[C@H](F)C[C@H]1C(=O)N[C@@H](c1ccccc1)c1ccc(C(C)C)cc1` [Compound 91, (2S,4R)-4-fluoro-1-[2-(2-methylphenoxy)acetyl]-N-[(S)-phenyl[4-(propan-2-yl)phenyl]methyl]pyrrolidine-2-carboxamide] were, in that order, > 100000 nM and 47 nM.
The like results for `CC(C)c1ccc([C@@H](NC(=O)[C@@H]2C[C@@H](F)CN2C(=O)CNC(=O)N2CC(F)(F)C2)c2ccccc2)nc1` [Compound 290, (2S,4R)-1-{2-[(3,3-difluoroazetidine-1-carbonyl]amino]acetyl}-4-fluoro-N-[(S)-phenyl[5-(propan-2-yl)pyridin-2-yl]methyl]pyrrolidine-2-carboxamide] were, in that order, > 100000 nM and 56 nM.
As to `CC(=O)N1CCC[C@H]1C(=O)N[C@H](c1ccc(C(C)C)cc1)c1ccccc1C` [Compound 640, (2S)-1-acetyl-N-[(R)-(2-methylphenyl)[4-(propan-2-yl)phenyl]methyl] pyrrolidine-2-carboxamide], the IC50 was > 100000 nM in assay [1] and 1440 nM in assay [2].
The like results for `CC(C)c1ccc([C@@H](NC(=O)[C@@H]2C[C@@H](F)CN2C(=O)C(C)n2ccnn2)c2ccccc2)cc1` (stereo partly drawn) [Compound 33, (2S,4R)-4-fluoro-N-[(S)-phenyl[4-(propan-2-yl)phenyl]methyl]-1-[2-(1H-1,2,3-triazol-1-yl)propanoyl]pyrrolidine-2-carboxamide] were, in that order, > 100000 nM and 106 nM.
The like results for `CC(C)c1ccc([C@@H](NC(=O)[C@@H]2C[C@@H](F)CN2C(=O)Cc2nnc[nH]2)c2ccccc2)cc1` [Compound 194, (2S,4R)-4-fluoro-N-[(S)-phenyl[4-(propan-2-yl)phenyl]methyl]-1-[2-(4H-1,2,4-triazol-3-yl)acetyl]pyrrolidine-2-carboxamide] were, in that order, > 100000 nM and 27 nM.
As to `CC(C)c1ccc([C@@H](NC(=O)[C@@H]2C[C@@H](F)CN2C(=O)Cc2ccnn2C)c2ccccc2)cc1` (stereo in doubt) [Compound 220, (2S,4RS)-4-fluoro-1-[2-(1-methyl-1H-pyrazol-5-yl)acetyl]-N-[(S)-phenyl[4-(propan-2-yl)phenyl]methyl]pyrrolidine-2-carboxamide], the IC50 was > 100000 nM in assay [1] and 38 nM in assay [2].
In the same order, the values of `CC(C)c1ccc([C@@H](NC(=O)[C@@H]2C[C@@H](F)CN2C(=O)Cn2ccnn2)c2ccccc2)cc1F` [Compound 331, (2S,4R)-4-fluoro-N-[(S)-[3-fluoro-4-(propan-2-yl)phenyl](phenyl)methyl]-1-[2-(1H-1,2,3-triazol-1-yl)acetyl]pyrrolidine-2-carboxamide] are > 100000 nM and 23 nM.
In the same order, the values of `CC(C)c1ccc([C@@H](NC(=O)[C@@H]2C[C@@H](F)CN2C(=O)C2(c3nnco3)CC2)c2ccccc2)cc1F` [Compound 333, (2S,4R)-4-fluoro-N-[(S)-[3-fluoro-4-(propan-2-yl)phenyl](phenyl)methyl]-1-[1-(1,3,4-oxadiazol-2-yl)cyclopropanecarbonyl] pyrrolidine-2-carboxamide] are > 100000 nM and 165 nM.
In the same order, the values of `CC(=O)N1CC[C@@H](C(=O)N2C[C@H](F)C[C@H]2C(=O)N[C@@H](c2ccccc2)c2ccc(C(C)C)cc2)[C@@H]1c1cccnc1` [Compound 140, (2S,4R)-1-[(2R,3R)-1-acetyl-2-(pyridin-3-yl)pyrrolidine-3-carbonyl]-4-fluoro-N-[(S)-phenyl[4-(propan-2-yl)phenyl]methyl]pyrrolidine-2-carboxamide] are > 100000 nM and 67 nM.
For the compound `CC(C)c1ccc([C@@H](NC(=O)[C@@H]2C[C@@H](F)CN2C(=O)CS(C)(=O)=O)c2ccccc2)cc1` [Compound 14, (2S,4R)-4-fluoro-1-(2-methanesulfonylacetyl)-N-[(S)-phenyl[4-(propan-2-yl)phenyl]methyl]pyrrolidine-2-carboxamide], the IC50 in assay [1] is > 100000 nM; in assay [2] it was 129 nM.
The like results for `CC(C)c1ccc([C@@H](NC(=O)[C@@H]2C[C@@H](F)CN2C(=O)CC#N)c2ccccc2)cc1` [Compound 188, (2S,4R)-1-(2-cyanoacetyl)-4-fluoro-N-[(S)-phenyl[4-(propan-2-yl)phenyl]methyl]pyrrolidine-2-carboxamide] were, in that order, > 100000 nM and 237 nM.
Take `CC(C)c1ccc([C@@H](NC(=O)[C@@H]2C[C@@H](F)CN2C(=O)Cn2ccnc2)c2ccccc2)cc1` [Compound 23, (2S,4R)-4-fluoro-1-[2-(1H-imidazol-1-yl)acetyl]-N-[(S)-phenyl[4-(propan-2-yl)phenyl]methyl]pyrrolidine-2-carboxamide]: the IC50 in assay [1] was > 100000 nM; in assay [2], 70 nM.
In the case of `CC(=O)N1CCCC(C(=O)N2C[C@H](F)C[C@H]2C(=O)N[C@@H](c2ccccc2)c2ccc(C(C)C)cc2)CC1` (stereo partly drawn) [Compound 169, (2S,4R)-1-(1-acetylazepane-4-carbonyl)-4-fluoro-N-[(S)-phenyl[4-(propan-2-yl)phenyl]methyl]pyrrolidine-2-carboxamide], the IC50 in assay [1] was > 100000 nM; in assay [2], 91 nM.
Regarding `CC(C)c1ccc([C@@H](NC(=O)[C@@H]2C[C@@H](F)CN2C(=O)CCn2nc3ccccn3c2=O)c2ccccc2)nc1` [Compound 289, (2S,4R)-4-fluoro-1-(3-{3-oxo-2H,3H-[1,2,4]triazolo[4,3-a]pyridin-2-yl}propanoyl)-N-[(S)-phenyl[5-(propan-2-yl)pyridin-2-yl]methyl]pyrrolidine-2-carboxamide], the IC50 is > 100000 nM in assay [1] and 56 nM in assay [2].
In the same order, the values of `Cc1ncccc1CCC(=O)N1C[C@H](F)C[C@H]1C(=O)N[C@@H](c1ccccc1)c1ccc(C(C)C)cc1` [Compound 102, (2S,4R)-4-fluoro-1-[3-(2-methylpyridin-3-yl)propanoyl]-N-[(S)-phenyl[4-(propan-2-yl)phenyl]methyl]pyrrolidine-2-carboxamide] are > 100000 nM and 58 nM.
